The text below walks through data of PMC11587516 (ACS Chemical Neuroscience, 2024).

Positions count from the first letter of the chain named.

Holding throughout (format): cell-based
One series has as its target T1, hBGT1 wt (Homo sapiens, UniProt P48065).
T1 construct: expressed in transfected cells; host or cells: tsA201 cells (transformed HEK293), transient expression
T1 sequence (P48065 1-614): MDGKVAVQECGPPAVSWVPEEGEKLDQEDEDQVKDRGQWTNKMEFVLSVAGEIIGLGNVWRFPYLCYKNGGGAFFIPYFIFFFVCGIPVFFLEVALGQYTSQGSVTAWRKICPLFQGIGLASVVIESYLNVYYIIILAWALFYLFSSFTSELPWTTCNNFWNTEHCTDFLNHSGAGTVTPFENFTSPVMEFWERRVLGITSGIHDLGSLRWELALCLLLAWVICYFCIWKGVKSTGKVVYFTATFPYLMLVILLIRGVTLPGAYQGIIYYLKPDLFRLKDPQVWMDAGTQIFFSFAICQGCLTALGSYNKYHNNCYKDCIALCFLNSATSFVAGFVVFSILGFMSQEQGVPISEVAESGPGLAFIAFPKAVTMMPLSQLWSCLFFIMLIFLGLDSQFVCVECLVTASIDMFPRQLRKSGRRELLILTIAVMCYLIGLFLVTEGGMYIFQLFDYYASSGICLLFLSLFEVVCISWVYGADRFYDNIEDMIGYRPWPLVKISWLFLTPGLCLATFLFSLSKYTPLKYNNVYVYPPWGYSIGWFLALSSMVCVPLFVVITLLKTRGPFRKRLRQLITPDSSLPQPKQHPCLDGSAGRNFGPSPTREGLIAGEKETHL
Description: [3H]GABA uptake assay, wild type hBGT1 transiently expressed in tsA201 cells. The protocol: (§1) To validate the molecular modeling, particularly the crucial interactions with the Glu52 and Gln299 residues, the activity of compound 9 was tested on the following hBGT1 mutants: E52A, E52Y, Q299L, and the double mutant E52A+Q299L (Figure 5 and Table 1).[14]
(§2) The CHO cells were placed in 96-well plates (approximately 50,000 cells/well) for about 24 h before the experiment. […] After incubation, cells were washed 3 times with 100 μL/well ice-cold assay buffer, 150 μL/well MicroScint20 (PerkinElmer) was subsequently added before the plate was shaken for at least 1 h. The radioactivity of each well of the plate was measured on a TopCount NXT scintillation counter. […] Data presented are the pooled data of at least three independent experiments with three technical replicates if not stated otherwise in figure legends. Concentration–response curves were fitted by nonlinear regression to the sigmoidal concentration–response model with GraphPad Prism v 9.0.
(§3) The tsA201 cell line (a transformed HEK293 cell line) has been described previously and was cultured accordingly.[20] The tsA201 cells used for transient expression of hBGT1 mutants were transfected with DNA constructs (8 μg per 10 cm plate) using 40 μL of PolyFect transfection reagent according to the manufacturer’s protocol (Qiagen). […]

The target of another series is T2, hBGT1 E52A+Q299L (Homo sapiens, UniProt P48065, E52A/Q299L).
T2 construct: host or cells: tsA201 cells (transformed HEK293), transient expression
T2 sequence (P48065 1-614 E52A/Q299L): T1 sequence (P48065 1-614) with E52A, Q299L
Kind of series: [3H]GABA uptake assay, hBGT1 double mutant E52A+Q299L in tsA201 cells. The procedure:
as §1, §2, §3

Series [1] concerns normal human astrocytes (NHA). Kind of series: Phase-contrast microscopy of normal human astrocytes in culture medium. The conditions noted are these: 500 μM in culture medium; 72 h. The protocol: Taking into account the presence of BGT1 and GAT3 transporters in astrocytes, we studied the effect of compound 9 on astrocyte viability, proliferation, and homeostasis. Normal human astrocytes (NHA) were treated with 1–100 μM compound 9 in a culture medium. The WST-1 assay was used to determine the number of metabolically active cells after 24 and 48 h of incubation. […] In the next step, a higher concentration (500 μM) of the compound and a longer incubation time (72 h) were applied, and the cells were examined by phase-contrast microscopy. […] Considering the results shown in Figure 6, compound 9 was not cytotoxic toward human astrocytes under in vitro culture conditions.
Gibco Human Astrocytes (Thermo Fisher Scientific) were maintained in a humidified 5% CO2 incubator at 37 °C. The cells were cultured in Gibco Astrocyte Medium (DMEM with GlutaMAX, N-2 Supplement, and OneShot Fetal Bovine Serum) supplemented with penicillin G (100 U/mL), neomycin (10 μg/mL), and amphotericin B (0.25 μg/mL).

As a reminder, the IC50 is the concentration that gives 50% inhibition. A low value points to higher potency. With `NC12CC(C(=O)O)(C1)C2` [Compound 9], the IC50 is 33.9 µM at hBGT1 wt and > 1000 µM against hBGT1 E52A+Q299L. Besides, on hBGT1 E52A+Q299L (E52A+Q299L vs wt), the “activity at mutant compared with wild type hBGT1” value is given as “no activity”. For the same compound, the “astrocyte morphology and confluency” value in series [1] is “no changes in astrocyte morphology and confluency”.
